Source: the supplement of paper PMC7021759
± gives the standard deviation of the averaged measurements.

Test system: SK-N-MM (SKNMM-MYCN, doxycycline-inducible MYCN)
Test: area under dose-response curve (CellTiter-Glo viability normalised to plate controls) (AUC (arbitrary units)); higher = more loss of viability; extreme values may be limits of the assay
Procedure, shortened: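 SK-N-MM cells with doxycycline-inducible MYCN were plated at 1250 cells/100 μL in 96-well plates and given medium with or without doxycycline about 24 h later. Two days later, 10-point 1:3 compound dilution series were pin-transferred (890-fold stock dilution) and re-dosed on day 4. CellTiter-Glo luminescence was read 3 or 8 days after drugging. Log2 signals were normalised to plate positive and negative controls, and area under the dose-response curve was computed.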

[1] = MYCN induction (doxycycline): +doxycycline (MYCN induced), time after drugging: 3 days
[2] = MYCN induction (doxycycline): +doxycycline (MYCN induced), time after drugging: 8 days
[3] = MYCN induction (doxycycline): no doxycycline (MYCN not induced), time after drugging: 8 days
[4] = MYCN induction (doxycycline): no doxycycline (MYCN not induced), time after drugging: 3 days

SMILES | area under dose-response curve [1] | area under dose-response curve [2] | area under dose-response curve [3] | area under dose-response curve [4]
CC(=O)O[C@@H](C)/C=C\C(=O)N[C@@H]1C[C@H](C)[C@H](C/C=C(C)/C=C/[C@H]2O[C@](C)(O)C[C@@]3(CO3)[C@@H]2O)O[C@@H]1C | 13.5 | 33.2 | 28.1 | 
CCOc1ccn(-c2ccc(F)cc2)c(=O)c1C(=O)Nc1ccc(Oc2ccnc(N)c2Cl)c(F)c1 | 0 | 0 | 74.3 | 4.76
COc1cc(F)ccc1-c1ncnc(Nc2cccc(CS(C)(=N)=O)c2)n1 (stereo unspecified) | 50.3 | 123 | 131 | 34
COc1cc2nc(N3CCCN(C)CC3)nc(NC3CCN(Cc4ccccc4)CC3)c2cc1OC | 195 | 247 | 243 | 194
Cc1c(-c2c(-c3ccc(F)o3)sc3ncnc(O[C@H](Cc4ccccc4OCc4ccnn4CC(F)(F)F)C(=O)O)c23)ccc(OCCN2CCN(C)CC2)c1Cl |  | 7.67 |  | 
Cc1cccc(-c2nn3c(c2-c2ccnc4ccc(C(N)=O)cc24)CCC3)n1 | 0 | 0 | 0 | 0
Cn1cc(-c2cnn3c(N)c(Br)c([C@@H]4CCCNC4)nc23)cn1 | 67.2 | 122 | 74.9 | 31.4
N#CCNC(=O)c1ccc(-c2ccnc(Nc3ccc(N4CCOCC4)cc3)n2)cc1 | 40.7 | 79.9 | 42 | 0
O=C(NC[C@H](O)CN1CCc2ccccc2C1)c1ccnc(NC2CCC2)c1 |  | 23.4 |  | 
O=C(NOC[C@H](O)CO)c1ccc(F)c(F)c1Nc1ccc(I)cc1F | 28.9 | 92.1 | 84.4 | 21.5
O=c1cc(-c2cccc3c2Sc2ccccc2S3)oc(N2CCOCC2)c1 |  |  |  | 16.3
CN(N=O)C(=O)N[C@H]1C(O)O[C@H](CO)[C@@H](O)[C@@H]1O (mixture of isomers) [STREPTOZOSIN] | 0 | 0 |  | 0
Nc1nccc2c1ncn2[C@@H]1C=C(CO)[C@@H](O)[C@H]1O [3-DEAZANEPLANOCIN] | 15.9 | 119 | 40.9 | 10.3
Nc1ncn([C@@H]2O[C@H](CO)[C@@H](O)[C@H]2O)c(=O)n1 [5-AZACYTIDINE] | 33.8 | 58.3 | 23.6 | 21.5
Nc1nc(=O)n([C@H]2C[C@H](O)[C@@H](CO)O2)cc1F [5-FLUORODEOXYCYTIDINE] | 23.7 | 184 | 58.5 | 9.38
O=c1[nH]cc(F)c(=O)[nH]1 [5-FLUOROURACIL] | 12.1 | 24.8 | 25 | 6.6

SMILES | area under dose-response curve [1] | area under dose-response curve [2] | area under dose-response curve [3] | area under dose-response curve [4]
CN[C@@H]1C[C@H]2O[C@@](C)([C@@H]1OC)n1c3ccccc3c3c4c(c5c6ccccc6n2c5c31)C(=O)N[C@H]4O [7-HYDROXYSTAUROSPORINE] | 204 | 290 | 249 | 144
CCN1CCN(Cc2ccc(Nc3ncc(F)c(-c4cc(F)c5nc(C)n(C(C)C)c5c4)n3)nc2)CC1 [ABEMACICLIB] |  |  | 14.4 | 
CC(=O)O[C@H]1CC[C@@]2(C)C(=CC[C@@H]3[C@@H]2CC[C@]2(C)C(c4cccnc4)=CC[C@@H]32)C1 [ABIRATERONE ACETATE] | 8.14 | 0 | 0.368 | 6.74
CN(C)C/C=C/C(=O)Nc1cc2c(Nc3ccc(F)c(Cl)c3)ncnc2cc1O[C@H]1CCOC1 [AFATINIB] | 137 | 145 | 121 | 140
COc1cc(Nc2ncc3c(n2)-c2ccc(Cl)cc2C(c2c(F)cccc2OC)=NC3)ccc1C(=O)O [ALISERTIB] | 51.1 ± 1.1 | 126 ± 21 | 69.4 ± 30 | 15.2 ± 0.59
CCC1(c2ccc(N)cc2)CCC(=O)NC1=O (stereo unspecified) [AMINOGLUTETHIMIDE] | 0 | 0 |  | 0
CC(C)(C#N)c1cc(Cn2cncn2)cc(C(C)(C)C#N)c1 [ANASTROZOLE] | 4.86 | 89.8 | 77.4 | 0
CON(C)C(=O)N1N=C(c2cc(F)ccc2F)S[C@@]1(CCCN)c1ccccc1 [ARRY-520] | 218 | 288 | 154 | 108
C[C@H]1[C@H](OC(=O)CCC(=O)O)O[C@@H]2O[C@@]3(C)CC[C@H]4[C@H](C)CC[C@@H]1[C@@]24OO3 [ARTESUNATE] | 46.2 | 60 | 25.9 | 25.7
O=C(Nc1c[nH]nc1-c1nc2ccc(CN3CCOCC3)cc2[nH]1)NC1CC1 [AT9283] | 91 | 206 | 145 | 42.9
O=C(NC1CCNCC1)c1n[nH]cc1NC(=O)c1c(Cl)cccc1Cl [AT-7519] | 48.9 | 113 | 65.7 | 
CC(=O)OC[C@H]1O[C@@H]([S-])[C@H](OC(C)=O)[C@@H](OC(C)=O)[C@@H]1OC(C)=O.CCP(CC)CC.[Au+] [AURANOFIN] | 199 | 223 | 208 | 188
CNC(=O)c1ccccc1Sc1ccc2c(/C=C/c3ccccn3)n[nH]c2c1 [AXITINIB] | 52.9 | 109 | 69.7 | 32.4
COc1cc(CCc2cc(NC(=O)c3ccc(N4CC(C)NC(C)C4)cc3)n[nH]2)cc(OC)c1 (stereo unspecified) [AZD4547] | 2.86 | 3.53 | 3.59 | 2.67
NC(=O)Nc1cc(-c2cccc(F)c2)sc1C(=O)N[C@H]1CCCNC1 [AZD-7762] | 139 | 244 | 141 | 75.8
CCN(CCCOc1ccc2c(Nc3cc(CC(=O)Nc4cccc(F)c4)[nH]n3)ncnc2c1)CCOP(=O)(O)O [BARASERTIB] | 19.5 | 92.2 | 33.5 | 
